Active and inactive are the calls of the source. The rule behind the calls is not given here.

This passage reports activity change, negative = inhibition and AC50 results from PubChem BioAssay AID1053168 (Broad Institute, 2014).

Experiment [1] is described as follows: Vaccinia infected cells, stage specific inhibitors, mcherry venus reporter fluorescence, confirmatory dose response (AID 1053168). Conditions: Vaccinia-infected cells, mCherry/Venus stage reporter fluorescence; at 21 µM (top of the series).
In experiment [2] the test system is Vaccinia-infected cells, mCherry/Venus stage reporter fluorescence. The description is as above.
Where [3] appears, read: measured here: mCherry reporter AC50.
Setting [4] is: measured here: Venus reporter AC50.

As for `C[C@H](O)C#Cc1ccc2c(c1)O[C@H](CN(C)Cc1ccccc1)[C@H](C)CN([C@@H](C)CO)S2(=O)=O`, the activity change, negative = inhibition in experiment [1] was -6.79% (inactive).
For `C[C@@H](O)C#Cc1ccc2c(c1)O[C@H](CN(C)Cc1ccccc1)[C@@H](C)CN([C@@H](C)CO)S2(=O)=O`, the half-maximal activity concentration (AC50) in experiment [2] (setting [3]) was over 42 µM. In addition, the activity change, negative = inhibition in experiment [1] was -5.1% (inactive).
The compound `CCCNC(=O)c1cc2c(c(-c3cccc(-c4cccc(F)c4)c3)n1)[C@H](CCO)N([S@@](=O)C(C)(C)C)C2` came in with an AC50 in experiment [2] (setting [3]) of over 42 µM. Also, the activity change, negative = inhibition in experiment [1] was -8.81% (inactive).
Regarding `C[C@H](O)C#Cc1ccc2c(c1)O[C@@H](CN(C)Cc1ccc(-c3ccccc3)cc1)[C@H](C)CN([C@@H](C)CO)S2(=O)=O`, the AC50 in experiment [2] was 21.8 µM; in experiment [2] (setting [4]), 20.5 µM; in experiment [2] (setting [3]) it was 21.8 µM.
For the compound `CN(C)C(=O)c1ccc(-c2cccc(-c3nc(C(=O)NC4CCCCC4)cc4c3[C@@H](CCO)N([S@](=O)C(C)(C)C)C4)c2)cc1`, the activity change, negative = inhibition in experiment [1] is -8.97% (inactive).
The compound `COc1ccccc1CN1CC[C@H]2[C@H](CO)Nc3ccc(-c4ccc(C(=O)N(C)C)cc4)cc3[C@H]21` showed a concentration at half-maximal activity (AC50) in experiment [2] (setting [3]) of over 42 µM. Besides, in experiment [1], the activity change, negative = inhibition is -16.1% (inactive).
Regarding `CCCNC(=O)C[C@H]1CC[C@@H]2[C@@H](COc3ccc(NC(=O)CCC)cc3C(=O)N2C)O1`, the activity change, negative = inhibition in experiment [1] was 2.55% (inactive).
Regarding `COc1ccccc1-c1ccc2c(c1)[C@H]1[C@H](CCN1C(=O)C1CCCCC1)[C@@H](CO)N2`, the half-maximal activity concentration (AC50) in experiment [2] and in experiment [2] (setting [3]) was 18.6 µM throughout.
In the case of `CCOC(=O)[C@@H]1[C@@H]2C=C[C@]3(O2)[C@H](C(=O)NCc2ccccc2)N(CCCCCCO)C(=O)[C@@H]13`, the AC50 in experiment [2] (setting [4]) and in experiment [2] (setting [3]) was over 42 µM each time. Moreover, the activity change, negative = inhibition in experiment [1] is -18.7% (inactive).
For the compound `N#Cc1ccc(-c2ccc3c(c2)[C@H]2[C@H](CCN2C(=O)C2CCCCC2)[C@H](CO)N3)cc1`, the half-maximal activity concentration (AC50) in experiment [2] and in experiment [2] (setting [3]) was 20.8 µM in each case.
As to `C[C@H](O)C#Cc1ccc2c(c1)O[C@@H](CN(C)Cc1ccccc1)[C@H](C)CN([C@H](C)CO)S2(=O)=O`, the AC50 in experiment [2] (setting [4]) and in experiment [2] (setting [3]) was over 42 µM in each case. The activity change, negative = inhibition in experiment [1] is -12.7% (inactive).
Take `C[C@H](O)C#Cc1ccc2c(c1)O[C@@H](CN(C)Cc1ccccc1)[C@H](C)CN([C@@H](C)CO)S2(=O)=O`: the AC50 in experiment [2] (setting [4]) and in experiment [2] (setting [3]) was over 42 µM in each case. Further, the activity change, negative = inhibition in experiment [1] is -8.31% (inactive).
Regarding `C[C@H](CO)N1C[C@H](C)[C@@H](CN(C)S(=O)(=O)c2ccc(Cl)cc2)Oc2c(NS(=O)(=O)c3cn(C)cn3)cccc2C1=O`, the activity change, negative = inhibition in experiment [1] was -2.63% (inactive).
The same measure, in the same setting: the figure for `C[C@@H]1CN([C@H](C)CO)S(=O)(=O)c2ccc(C#C[C@@H](C)O)cc2O[C@@H]1CN(C)Cc1ccccc1` is -2.36% (inactive); for `C[C@H](O)C#Cc1ccc2c(c1)O[C@@H](CN(C)Cc1ccccc1)[C@@H](C)CN([C@H](C)CO)S2(=O)=O` it is 16.5% (inactive).
`C[C@@H]1CN([C@@H](C)CO)C(=O)Cc2cc(NC(=O)C3CCCCC3)ccc2O[C@H]1CN(C)C(=O)Nc1ccccc1`: in experiment [1], the activity change, negative = inhibition was -0.285% (inactive).
Still for that read-out and setting: as for `C[C@@H](O)C#Cc1ccc2c(c1)O[C@@H](CN(C)Cc1cccnc1)[C@@H](C)CN([C@@H](C)CO)S2(=O)=O`, the figure is 6.15% (inactive).
Turning to `C[C@H](O)C#Cc1ccc2c(c1)O[C@H](CN(C)Cc1ccc(-c3ccccc3)cc1)[C@H](C)CN([C@H](C)CO)S2(=O)=O`, the AC50 is 17.1 µM in experiment [2], 20.3 µM in experiment [2] (setting [4]) and 17.1 µM in experiment [2] (setting [3]).
As to `C[C@@H]1CN([C@H](C)CO)S(=O)(=O)c2ccc(C#C[C@@H](C)O)cc2O[C@H]1CN(C)Cc1ccccc1`, the activity change, negative = inhibition in experiment [1] was -15.2% (inactive).
For the compound `CN1c2ccc(-c3ccc(C#N)cc3)cc2[C@H]2[C@H](CCN2C(=O)C2CCCCC2)[C@@H]1CO`, the AC50 in experiment [2] was 18.9 µM; in experiment [2] (setting [4]), 20.5 µM; in experiment [2] (setting [3]), 18.9 µM.
`C[C@@H](O)C#Cc1ccc2c(c1)O[C@@H](CN(C)Cc1ccccc1)[C@@H](C)CN([C@@H](C)CO)S2(=O)=O`: the activity change, negative = inhibition in experiment [1] is -38% (inactive).
On the same count and under the same terms, as for `O=C(Nc1ccc2c(c1)[C@@H]1C[C@@H](CC(=O)N3CCCCC3)O[C@@H](CO)[C@@H]1O2)Nc1ccccc1F`, the figure is 3.1% (inactive).
For the compound `C[C@@H](O)C#Cc1ccc2c(c1)O[C@H](CN(C)Cc1ccc(-c3ccccc3)cc1)[C@@H](C)CN([C@@H](C)CO)S2(=O)=O`, the figures for the AC50 in experiment [2], in experiment [2] (setting [4]) and in experiment [2] (setting [3]) were 18.9 µM, 20.8 µM and 18.9 µM, respectively.
`C[C@H](O)C#Cc1ccc2c(c1)O[C@H](CN(C)Cc1ccc(-c3ccccc3)cc1)[C@@H](C)CN([C@@H](C)CO)S2(=O)=O`: the AC50 is 16.4 µM in experiment [2], 15.9 µM in experiment [2] (setting [4]) and 16.4 µM in experiment [2] (setting [3]).
